According to ChEMBL document CHEMBL1201862, “PubChem BioAssay data set” (2004):
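48-hour exposure; five concentrations; linearly interpolated endpoints. The concentration for 50% growth inhibition is given as GI50.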 Active and inactive are the calls of the source. No stated cut-off is given here; in the data, active = GI50 up to about 1.1 µM and inactive = higher.

How the values were obtained:
Assay in all cases: inhibition of tumour cell growth, NCI panel, 48 h
ACHN = test system: ACHN
TK-10 = test system: TK-10
SNB-75 = test system: SNB-75
HOP-92 = test system: HOP-92
SN12C = test system: SN12C
786-0 = test system: 786-0
SK-MEL-2 = test system: SK-MEL-2
SK-MEL-5 = test system: SK-MEL-5
SF-295 = test system: SF-295
UO-31 = test system: UO-31
COLO 205 = test system: COLO 205
OVCAR-4 = test system: OVCAR-4
DU-145 = test system: DU-145
IGROV-1 = test system: IGROV-1
SK-OV-3 = test system: SK-OV-3
BT-549 = test system: BT-549
MCF7 = test system: MCF7
Hs-578T = test system: Hs-578T
SK-MEL-28 = test system: SK-MEL-28
OVCAR-3 = test system: OVCAR-3
A498 = test system: A498
MOLT-4 = test system: MOLT-4
SW-620 = test system: SW-620
CCRF-CEM = test system: CCRF-CEM
Malme-3M = test system: Malme-3M
HCT-15 = test system: HCT-15
MDA-MB-435 = test system: MDA-MB-435
NCI-H460 = test system: NCI-H460
KM12 = test system: KM12
HOP-62 = test system: HOP-62
SF-268 = test system: SF-268
NCI-H522 = test system: NCI-H522
UACC-257 = test system: UACC-257
A549 = test system: A549
MDA-N = test system: MDA-N
NCI-H226 = test system: NCI-H226
HCT-116 = test system: HCT-116
T47D = test system: T47D

c1ccc(CNC2CC(NCc3ccccn3)CC(NCc3ccccn3)C2)nc1 (stereo not drawn) was tested, and the GI50 (ACHN) was 9.51 µM (inactive), the GI50 (TK-10) was 3.45 µM (inactive) and the GI50 (SNB-75) was 4.27 µM (inactive). For the same compound, the GI50 (HOP-92) was 4.67 µM (inactive), the GI50 (SN12C) was 5.22 µM (inactive) and the GI50 (786-0) was 2.38 µM (inactive). For the same compound, the GI50 (SK-MEL-2) was 5.11 µM (inactive), the GI50 (SK-MEL-5) was 3.54 µM (inactive) and the GI50 (SF-295) was 6.21 µM (inactive). The GI50 (UO-31) was > 25 µM (inactive), the GI50 (COLO 205) was 1.09 µM (active) and the GI50 (OVCAR-4) was 4.13 µM (inactive). The GI50 (DU-145) was 4.73 µM (inactive), the GI50 (IGROV-1) was 4.38 µM (inactive) and the GI50 (SK-OV-3) was 4.46 µM (inactive). The GI50 (BT-549) was 5.27 µM (inactive), the GI50 (MCF7) was 3.5 µM (inactive) and the GI50 (Hs-578T) was 7.66 µM (inactive). The GI50 (SK-MEL-28) was 3.08 µM (inactive), the GI50 (OVCAR-3) was 4.08 µM (inactive) and the GI50 (A498) was 3.05 µM (inactive). The GI50 (MOLT-4) was 3.39 µM (inactive), the GI50 (SW-620) was 6.61 µM (inactive) and the GI50 (CCRF-CEM) was 2.61 µM (inactive). For the same compound, the GI50 (Malme-3M) was 3.52 µM (inactive), the GI50 (HCT-15) was 4.72 µM and the GI50 (MDA-MB-435) was 4.5 µM (inactive). The GI50 (NCI-H460) was 5.15 µM (inactive), the GI50 (KM12) was 2.7 µM (inactive) and the GI50 (HOP-62) was 6.89 µM (inactive). The GI50 (SF-268) was 5 µM (inactive), the GI50 (NCI-H522) was 4.6 µM (inactive) and the GI50 (UACC-257) was 4.53 µM (inactive). For the same compound, the GI50 (A549) was 2.61 µM (inactive), the GI50 (MDA-N) was 4.47 µM (inactive) and the GI50 (NCI-H226) was 3.32 µM (inactive). The GI50 (HCT-116) was 3.1 µM (inactive) and the GI50 (T47D) was 5.66 µM (inactive).
